Experimental data reported in patent publication US9629363B2, “Pesticidal compositions and processes related thereto” (Dow AgroSciences LLC, priority 2012, dated 2017).

Tests used:
[1] = tested on: Beet Armyworm (BAW) (Spodoptera exigua); test: Bioassay on beet armyworm (BAW), 128-well diet tray assay; assay type: in vivo; details: for BAW Rating: percent mortality of second instar larvae, 50 μg/cm^2 on artificial diet, five to seven days, 25° C.; for pest or weed control at 50 µg/cm2: Spodoptera exigua, Table 3B, beet armyworm, 128-well diet tray assay, read-out: BAW Rating
Protocol: (§1) Certain molecules disclosed in this document were tested against BAW and CEW and CL using procedures described in the following examples. In the reporting of the results, the “BAW & CEW & CL Rating Table” was used (See Table Section).
Bioassays on BAW were conducted using a 128-well diet tray assay. one to five second instar BAW larvae were placed in each well (3 mL) of the diet tray that had been previously filled with 1 mL of artificial diet to which 50 μg/cm^2 of the test compound (dissolved in 50 μL of 90:10 acetone-water mixture) had been applied (to each of eight wells) and then allowed to dry. Trays were covered with a clear self-adhesive cover, and held at 25° C., 14:10 light-dark for five to seven days. Percent mortality was recorded for the larvae in each well; activity in the eight wells was then averaged. The results are indicated in the table entitled “Table 3: Assay Results” (See Table Section).

[2] = tested on: Cabbage Looper (CL) (Trichoplusia ni); test: Bioassay on cabbage looper (CL), 128-well diet tray assay; assay type: in vivo; details: Table 3B, read-out: CL Rating
Protocol: as §1
Bioassays on CL were conducted using a 128-well diet tray assay. One to five second instar CL larvae were placed in each well (3 mL) of the diet tray that had been previously filled with 1 mL of artificial diet to which 50 μg/cm^2 of the test compound (dissolved in 50 μL of 90:10 acetone-water mixture) had been applied (to each of eight wells) and then allowed to dry. Trays were covered with a clear self-adhesive cover, and held at 25° C., 14:10 light-dark for five to seven days. Percent mortality was recorded for the larvae in each well; activity in the eight wells was then averaged. The results are indicated in the table entitled “Table 3A: Assay Results” (See Table Section).

| SMILES | BAW Rating [1] | pest or weed control at 50 µg/cm2 [2] [%] | pest or weed control at 50 µg/cm2 [1] [%] |
| --- | --- | --- | --- |
| N#CCN1CCC(NC(=O)c2ccc(/C=C/C(c3cc(Cl)c(Cl)c(Cl)c3)C(F)(F)F)cc2Br)CC1 (stereo not drawn) [AC107] | B (More than 0-Less than 50) |  |  |
| O=C(NC1CCN(C2COC2)CC1)c1ccc(/C=C/C(c2cc(Cl)c(Cl)c(Cl)c2)C(F)(F)F)cc1Br (stereo not drawn) [AC108, (E)-2-Bromo-N-(1-(oxetan-3-yl)piperidin-4-yl)-4-(4,4,4-trifluoro-3-(3,4,5-trichlorophenyl)but-1-en-1-yl)benzamide] | B (More than 0-Less than 50) |  |  |
| O=C(NCCc1ccc(Cl)nc1)c1ccc(/C=C/C(c2cc(Cl)c(Cl)c(Cl)c2)C(F)(F)F)cc1Br (stereo not drawn) [AC113] | B (More than 0-Less than 50) |  |  |
| CCNC(=O)NCc1ccc(/C=C/C(c2cc(Cl)cc(Cl)c2)C(F)(F)F)cc1Cl (stereo not drawn) [CC31, (E)-1-(2-Chloro-4-(3-(3,5-dichlorophenyl)-4,4,4-trifluorobut-1-en-1-yl)benzyl)-3-ethylurea] | B (More than 0-Less than 50) |  |  |
| FC(F)(F)C(/C=C/c1ccc(-n2cncn2)cc1)c1ccccc1 (stereo not drawn) [DC3] | B (More than 0-Less than 50) |  |  |
| CN(NC(=O)c1ccc(/C=C/C(c2cc(Cl)c(Cl)c(Cl)c2)C(F)(F)F)cc1Br)C(=O)CCC(F)(F)F (stereo not drawn) [FA1] |  | 50 to 100 | 50 to 100 |
| CN(NC(=O)c1ccc(/C=C/C(c2cc(Cl)c(Cl)c(Cl)c2)C(F)(F)F)cc1Br)C(=O)CC(F)(F)F (stereo not drawn) [FA2] |  | 50 to 100 | 50 to 100 |
| CN(NC(=O)c1ccc(/C=C/C(c2cc(Cl)c(Cl)c(Cl)c2)C(F)(F)F)cc1C(F)(F)F)C(=O)C1CC1 (stereo not drawn) [FA3] |  | 50 to 100 | 50 to 100 |
| CCC(=O)N(C)NC(=O)c1ccc(/C=C/C(c2cc(Cl)c(Cl)c(Cl)c2)C(F)(F)F)cc1C (stereo not drawn) [FA4] |  | 50 to 100 | 50 to 100 |
| Cc1cc(/C=C/C(c2cc(Cl)c(Cl)c(Cl)c2)C(F)(F)F)ccc1C(=O)NN(C)C(=O)C1CC1 (stereo not drawn) [FA5] |  | 50 to 100 | 50 to 100 |
| Cc1cc(/C=C/C(c2cc(Cl)c(Cl)c(Cl)c2)C(F)(F)F)ccc1C(=O)NN(C)C(=O)CCC(F)(F)F (stereo not drawn) [FA6] |  | 50 to 100 | 50 to 100 |
| O=C(CC(F)(F)F)NCCNC(=O)c1ccc(/C=C/C(c2cc(Cl)c(Cl)c(Cl)c2)C(F)(F)F)cc1C(F)(F)F (stereo not drawn) [FA7] |  | 50 to 100 | 50 to 100 |
| CC(C)(CNC(=O)c1ccc(/C=C/C(c2cc(Cl)c(Cl)c(Cl)c2)C(F)(F)F)cc1C(F)(F)F)NC(=O)CC(F)(F)F (stereo not drawn) [FA8] |  | 50 to 100 | 50 to 100 |
| CC(C)(CNC(=O)c1ccc(/C=C/C(c2cc(Cl)c(Cl)c(Cl)c2)C(F)(F)F)cc1C(F)(F)F)NC(=O)C(F)(F)F (stereo not drawn) [FA9] |  | 0 to 50 |  |
| O=C(NCCNC(=O)C(F)(F)F)c1ccc(/C=C/C(c2cc(Cl)c(Cl)c(Cl)c2)C(F)(F)F)cc1C(F)(F)F (stereo not drawn) [FA10] |  | 50 to 100 | 50 to 100 |
| CN(NC(=O)c1ccc(/C=C/C(c2cc(Cl)c(Cl)c(Cl)c2)C(F)(F)F)cc1C(F)(F)F)C(=O)C(F)(F)C(F)(F)C(F)(F)F (stereo not drawn) [FA11] |  | 50 to 100 | 50 to 100 |
| CCCC(=O)N(C)NC(=O)c1ccc(/C=C/C(c2cc(Cl)c(Cl)c(Cl)c2)C(F)(F)F)cc1C(F)(F)F (stereo not drawn) [FA12] |  | 50 to 100 | 50 to 100 |
| CN(NC(=O)c1ccc(/C=C/C(c2cc(Cl)c(Cl)c(Cl)c2)C(F)(F)F)cc1C(F)(F)F)C(=O)CCC(F)(F)F (stereo not drawn) [FA13] |  | 50 to 100 | 50 to 100 |
| O=C(CCC(F)(F)F)NNC(=O)c1ccc(/C=C/C(c2cc(Cl)c(Cl)c(Cl)c2)C(F)(F)F)cc1C(F)(F)F (stereo not drawn) [FA14] |  | 50 to 100 | 50 to 100 |
| CC(C)(CNC(=O)C(F)(F)F)NC(=O)c1ccc(/C=C/C(c2cc(Cl)c(Cl)c(Cl)c2)C(F)(F)F)cc1C(F)(F)F (stereo not drawn) [FA15] |  | 50 to 100 | 50 to 100 |
| CC(C)(CNC(=O)CC(F)(F)F)NC(=O)c1ccc(/C=C/C(c2cc(Cl)c(Cl)c(Cl)c2)C(F)(F)F)cc1C(F)(F)F (stereo not drawn) [FA16] |  | 50 to 100 | 50 to 100 |
